According to patent US20210113501A1, “METHOD OF ADMINISTERING BETA-HYDROXY-BETA-METHYLBUTYRATE (HMB)” (Metabolic Technologies, Inc., priority 2009, published 2021):

Assay: Study 1 blood chemistry
Type: in vivo, human
Details: for Gamma-glutamyl: in U/L (unit assumed); for A:G Ratio % Change / Alanine Aminotransferase % Change / Albumin % Change / Alkaline Phosphatase % Change / Aspartate Aminotransferase % Change / Blood Urea Nitrogen % Change / CO2 % Change / Chloride % Change / Cholesterol Ratio % Change / Creatinine % Change / Direct Bilirubin % Change / Gamma-glutamyl % Change / Globulin % Change / Glucose % Change / HDL % Change / Iron % Change / Iron Binding Capacity % Change / Iron Saturation % Change / LDL % Change / Lactate Dehydrogenase % Change / Phosphorus % Change / Potassium % Change / Protein % Change / Sodium % Change / Total Bilirubin % Change / Total Cholesterol % Change / Triglycerides % Change / UIBC % Change / Uric Acid % Change: Before to After
Protocol: Study 1 design. For study 1 the subjects reported to the laboratory in the morning following an overnight fast. Before ingestion of one of the supplemental treatments, a flexible sterile polyethylene catheter was inserted into a forearm vein using sterile procedures and a pre-ingestion blood sample was drawn. Subsequent blood samples were taken at 0, 2, 5, 10, 15, 25, 35, 45, 60, 90, 120 and 180 min after ingestion of the treatment. Plasma was separated and samples were stored frozen at −70° C. for analysis of HMB concentration. In addition, a portion of the pre-ingestion and 180 minute blood samples were used for measurements (LabCorp, Kansas City, Mo.) of glucose, uric acid, blood urea nitrogen (BUN), creatinine, sodium, potassium, chloride, carbon dioxide, phosphorous, protein, albumin, globulin, albumin:globulin ratio, total bilirubin, direct bilirubin, alkaline phosphatase, lactate dehydrogenase, aspartate aminotransferase (AST), alanine aminotransferase (ALT), gamma-glutamyl transpeptidase (GGT), iron binding capacity (TIBC), unsaturated iron binding capacity (UIBC), iron, iron saturation, total cholesterol, triglycerides, high density lipoprotein (HDL), low density lipoprotein (LDL), and cholesterol ratio. A complete blood count (CBC) was also performed before and after the 180 min treatment period. Subjects also completed a brief questionnaire to report any physical symptoms (such as nausea, headache, etc) they may have experienced during the experiment.
The data were analyzed using a crossover design with Proc GLM in SAS. (45) For the timed sampling of plasma HMB a repeated measures polynomial model was used. The model included subject, order, and treatment main effects and time by treatment interaction where appropriate. For other parameters Proc GLM was also used with subject, order, and treatment main effects and the p values are reported for the treatment main effect. Statistical significance was determined for p<0.05 and a trend was determined for 0.05<p<0.10.

[1] = After (180 min), listed as Free Acid Gel Swallow
[2] = listed as Free Acid Gel Swallow
[3] = Before, listed as Free Acid Gel Swallow

SMILES: CC(C)(O)CC(=O)O [HMB-Acid Gel Swallow, 3-hydroxy-3-methylbutyric acid]
- Albumin (After (180 min)): 4.1 ± 0.2 g/dL
- Direct Bilirubin (After (180 min)): 0.1 ± 0.01 mg/dL
- A:G Ratio [1]: 1.9 ± 0.1
- Alanine Aminotransferase [1]: 15.6 ± 1.3 IU/L
- Alkaline Phosphatase [1]: 64.4 ± 6.7 IU/L
- Aspartate Aminotransferase [1]: 23.1 ± 2.0 IU/L
- Blood Urea Nitrogen [1]: 14.4 ± 1.5 mg/dL
- CO2 [1]: 24.3 ± 0.5 mEq/L
- Chloride [1]: 103.3 ± 0.5 mEq/L
- Cholesterol Ratio [1]: 3.3 ± 0.3
- Creatinine [1]: 0.9 ± 0.1 mg/dL
- Globulin [1]: 2.2 ± 0.1 g/dL
- Glucose [1]: 73.3 ± 4.1 mg/dL
- HDL [1]: 48.5 ± 3.7 mg/dL
- Iron [1]: 96.3 ± 17.3 µg/dL
- Iron Binding Capacity [1]: 333.4 ± 35.2 µg/dL
- Iron Saturation [1]: 33.5 ± 8.4%
- LDL [1]: 85.6 ± 4.1 mg/dL
- Lactate Dehydrogenase [1]: 166.3 ± 11.1 IU/L
- Phosphorus [1]: 3.4 ± 0.1 mg/dL
- Potassium [1]: 4.6 ± 0.3 mEq/L
- Protein [1]: 6.3 ± 0.2 g/dL
- Sodium [1]: 138.3 ± 0.9 mEq/L
- Total Bilirubin [1]: 0.5 ± 0.07 mg/dL
- Total Cholesterol [1]: 153.3 ± 5.6 mg/dL
- Triglycerides [1]: 87.5 ± 14.8 mg/dL
- UIBC [1]: 237.1 ± 49.2 µg/dL
- Uric Acid [1]: 4.9 ± 0.4 mg/dL
- Gamma-glutamyl [1]: 13.5 ± 1.1
- A:G Ratio (Before): 1.9 ± 0.1
- Creatinine (Before): 1.0 ± 0.1 mg/dL
- Direct Bilirubin (Before): 0.1 ± 0.01 mg/dL
- Total Bilirubin (Before): 0.4 ± 0.05 mg/dL
- A:G Ratio % Change [2]: 0.0%
- Alanine Aminotransferase % Change [2]: −1.6%
- Albumin % Change [2]: 1.9%
- Alkaline Phosphatase % Change [2]: 0.8%
- Aspartate Aminotransferase % Change [2]: −3.6%
- Blood Urea Nitrogen % Change [2]: −6.5%
- CO2 % Change [2]: 8.1%
- Chloride % Change [2]: −0.4%
- Cholesterol Ratio % Change [2]: −3.3%
- Creatinine % Change [2]: −4.7%
- Direct Bilirubin % Change [2]: 7.9%
- Gamma-glutamyl % Change [2]: −6.1%
- Globulin % Change [2]: 0.6%
- Glucose % Change [2]: 3.9%
- HDL % Change [2]: 3.5%
- Iron % Change [2]: 12.6%
- Iron Binding Capacity % Change [2]: 1.4%
- Iron Saturation % Change [2]: 9.4%
- LDL % Change [2]: −3.1%
- Lactate Dehydrogenase % Change [2]: −1.5%
- Phosphorus % Change [2]: −15.6%
- Potassium % Change [2]: 11.4%
- Protein % Change [2]: 1.4%
- Sodium % Change [2]: −0.2%
- Total Bilirubin % Change [2]: 23.3%
- Total Cholesterol % Change [2]: −0.2%
- Triglycerides % Change [2]: −4.1%
- UIBC % Change [2]: −2.5%
- Uric Acid % Change [2]: 0.8%
- Alanine Aminotransferase [3]: 15.9 ± 1.5 IU/L
- Albumin [3]: 4.0 ± 0.2 g/dL
- Alkaline Phosphatase [3]: 63.9 ± 5.8 IU/L
- Aspartate Aminotransferase [3]: 24.0 ± 2.2 IU/L
- Blood Urea Nitrogen [3]: 15.4 ± 1.6 mg/dL
- CO2 [3]: 22.4 ± 0.7 mEq/L
- Chloride [3]: 103.6 ± 0.8 mEq/L
- Cholesterol Ratio [3]: 3.4 ± 0.2
- Globulin [3]: 2.2 ± 0.1 g/dL
- Glucose [3]: 70.5 ± 1.7 mg/dL
- HDL [3]: 46.9 ± 3.4 mg/dL
- Iron [3]: 85.5 ± 19.2 µg/dL
- Iron Binding Capacity [3]: 328.6 ± 31.0 µg/dL
- Iron Saturation [3]: 30.6 ± 9.4%
- LDL [3]: 88.4 ± 3.0 mg/dL
- Lactate Dehydrogenase [3]: 168.8 ± 10.4 IU/L
- Phosphorus [3]: 4.0 ± 0.1 mg/dL
- Potassium [3]: 4.2 ± 0.1 mEq/L
- Protein [3]: 6.2 ± 0.2 g/dL
- Sodium [3]: 138.5 ± 1.1 mEq/L
- Total Cholesterol [3]: 153.5 ± 5.3 mg/dL
- Triglycerides [3]: 91.3 ± 17.0 mg/dL
- UIBC [3]: 243.1 ± 47.4 µg/dL
- Uric Acid [3]: 4.9 ± 0.4 mg/dL
- Gamma-glutamyl [3]: 14.4 ± 1.6

SMILES: CC(C)(O)CC(=O)[O-].CC(C)(O)CC(=O)[O-].[Ca+2] [CaHMB, calcium β-hydroxy-β-methylbutryate, reference compound]
- A:G Ratio (After (180 min)): 1.7 ± 0.1
- Alanine Aminotransferase (After (180 min)): 15.6 ± 2.0 IU/L
- Albumin (After (180 min)): 4.1 ± 0.1 g/dL
- Alkaline Phosphatase (After (180 min)): 68.4 ± 8.4 IU/L
- Aspartate Aminotransferase (After (180 min)): 22.4 ± 1.8 IU/L
- Blood Urea Nitrogen (After (180 min)): 11.3 ± 0.9 mg/dL
- CO2 (After (180 min)): 24.8 ± 0.5 mEq/L
- Chloride (After (180 min)): 103.1 ± 0.7 mEq/L
- Cholesterol Ratio (After (180 min)): 3.0 ± 0.1
- Creatinine (After (180 min)): 0.9 ± 0.1 mg/dL
- Direct Bilirubin (After (180 min)): 0.1 ± 0.01 mg/dL
- Globulin (After (180 min)): 2.5 ± 0.2 g/dL
- Glucose (After (180 min)): 76.4 ± 3.2 mg/dL
- HDL (After (180 min)): 53.1 ± 3.8 mg/dL
- Iron (After (180 min)): 93.0 ± 16.8 µg/dL
- Iron Binding Capacity (After (180 min)): 342.8 ± 35.9 µg/dL
- Iron Saturation (After (180 min)): 31.1 ± 8.9%
- LDL (After (180 min)): 86.5 ± 5.7 mg/dL
- Lactate Dehydrogenase (After (180 min)): 165.6 ± 10.7 IU/L
- Phosphorus (After (180 min)): 3.5 ± 0.3 mg/dL
- Potassium (After (180 min)): 4.7 ± 0.2 mEq/L
- Protein (After (180 min)): 6.5 ± 0.3 g/dL
- Sodium (After (180 min)): 139.4 ± 0.8 mEq/L
- Total Bilirubin (After (180 min)): 0.5 ± 0.08 mg/dL
- Total Cholesterol (After (180 min)): 153.9 ± 9.7 mg/dL
- Triglycerides (After (180 min)): 71.6 ± 11.2 mg/dL
- UIBC (After (180 min)): 249.8 ± 47.7 µg/dL
- Uric Acid (After (180 min)): 4.5 ± 0.4 mg/dL
- Gamma-glutamyl (After (180 min)): 13.1 ± 0.9
- A:G Ratio (Before): 1.8 ± 0.1
- Alanine Aminotransferase (Before): 14.1 ± 1.5 IU/L
- Albumin (Before): 4.0 ± 0.1 g/dL
- Alkaline Phosphatase (Before): 66.5 ± 6.5 IU/L
- Aspartate Aminotransferase (Before): 21.4 ± 1.5 IU/L
- Blood Urea Nitrogen (Before): 12.1 ± 1.0 mg/dL
- CO2 (Before): 23.4 ± 0.6 mEq/L
- Chloride (Before): 103.3 ± 0.6 mEq/L
- Cholesterol Ratio (Before): 3.0 ± 0.1
- Creatinine (Before): 0.9 ± 0.1 mg/dL
- Direct Bilirubin (Before): 0.1 ± 0.02 mg/dL
- Globulin (Before): 2.3 ± 0.2 g/dL
- Glucose (Before): 72.6 ± 1.6 mg/dL
- HDL (Before): 51.3 ± 3.2 mg/dL
- Iron (Before): 83.3 ± 16.7 µg/dL
- Iron Binding Capacity (Before): 330.4 ± 32.9 µg/dL
- Iron Saturation (Before): 29.9 ± 9.5%
- LDL (Before): 86.1 ± 5.3 mg/dL
- Lactate Dehydrogenase (Before): 160.9 ± 9.5 IU/L
- Phosphorus (Before): 3.9 ± 0.2 mg/dL
- Potassium (Before): 4.1 ± 0.1 mEq/L
- Protein (Before): 6.3 ± 0.2 g/dL
- Sodium (Before): 139.1 ± 0.5 mEq/L
- Total Bilirubin (Before): 0.5 ± 0.07 mg/dL
- Total Cholesterol (Before): 153.4 ± 9.1 mg/dL
- Triglycerides (Before): 80.4 ± 11.6 mg/dL
- UIBC (Before): 247.1 ± 45.0 µg/dL
- Uric Acid (Before): 4.5 ± 0.3 mg/dL
- A:G Ratio % Change: −8.9%
- Alanine Aminotransferase % Change: 10.6%
- Albumin % Change: 0.3%
- Alkaline Phosphatase % Change: 2.8%
- Aspartate Aminotransferase % Change: 4.7%
- Blood Urea Nitrogen % Change: −7.2%
- CO2 % Change: 5.9%
- Chloride % Change: −0.1%
- Cholesterol Ratio % Change: −2.5%
- Creatinine % Change: 0.5%
- Direct Bilirubin % Change: 5.8%
- Gamma-glutamyl % Change: −4.5%
- Globulin % Change: 8.2%
- Glucose % Change: 5.2%
- HDL % Change: 3.7%
- Iron % Change: 11.7%
- Iron Binding Capacity % Change: 3.7%
- Iron Saturation % Change: 4.2%
- LDL % Change: 0.4%
- Lactate Dehydrogenase % Change: 3.0%
- Phosphorus % Change: −10.8%
- Potassium % Change: 13.4%
- Protein % Change: 3.2%
- Sodium % Change: 0.2%
- Total Bilirubin % Change: 7.9%
- Total Cholesterol % Change: 0.3%
- Triglycerides % Change: −10.9%
- UIBC % Change: 1.1%
- Uric Acid % Change: −1.4%
- Gamma-glutamyl (Before): 13.8 ± 0.9
